Legend:
[1] = molecular target: T1, Human serum albumin (HSA) (Homo sapiens, UniProt P02768); assay: Binding constants by quenching of HSA tryptophan fluorescence; conditions: for K ± S.D. (binding constant): 6 μM HSA, pH 7.4, 25 °C, excitation 295 nm, 1:1 binding model
T1 construct: Fatty acid free HSA and warfarin sodium were purchased from Sigma-Aldrich; purchased Sigma-Aldrich (St. Louis, MO, USA)
Method: In all experiments, the final co-solvent concentration was held below 5%. This was done to prevent conformational changes of HSA due to changes in dielectric constant of the solvent.
Steady-state fluorescence was recorded using a thermostated Safas Xenius fluorometer (Safas Monaco, Monaco) with an integrated stirrer. All studies were performed at 25 ± 1 °C using 10 nm excitation and emission slit widths. […] Measurements were performed in duplicate.
A stock solution of a single ligand was gradually added via syringe to a 2 mL of a 6 μM HSA solution placed in a quartz cell. Measurements were conducted at the excitation wavelength of 295 nm and emission was recorded in the 310–400 nm range enabling calculations of corresponding binding constants. […] Binding constants were determined according to Dufour and Dangles. A Scatchard analysis was performed assuming n identical binding sites on HSA. Values for binding constant (K), molar fluorescence intensity of the complex (f), and the stoichiometric coefficient (n) were estimated by fitting the F vs. Lt curves against Equations (1) and (2) using a least-square regression program Scientist (MicroMath, Salt Lake City, UT, USA), where F is fluorescence intensity, [L] the free ligand concentration, [Lt] the total ligand concentration, and c the total albumin concentration. […] In all cases, the inner filter effect was taken into account by using absorption of free ligands at excitation and emission wavelengths (εex and εem, respectively) (Equation (3)), where Fcorr is the fluorescence corrected for the inner filter effect, F0 is the measured fluorescence, ε is the sum of εex and εem, l = 0.65 is the optical path and c is the flavonoid concentration. (1) Fcorr=fcnK[L]/1+K[L] (2) [Lt]=[L](1+ncK/1+K[L]) (3) F0=Fcorr×10^−εlc

[2] = test system: HSA; conditions: cited from earlier work
[3] = molecular target: Human serum albumin (HSA) IIA binding site (Homo sapiens, UniProt P02768); assay: Flavonoid fluorescence (excitation 450 nm) on HSA pre-saturated with warfarin (simultaneous binding / displacement)
Method: HSA was freshly dissolved in Dulbecco’s phosphate-buffered saline pH 7.4 (137 mM sodium chloride, 2.7 mM potassium chloride, 8.1 mM disodium hydrogen phosphate, 1.47 mM potassium dihydrogen phosphate) immediately before measurements. […]. In all experiments, the final co-solvent concentration was held below 5%. This was done to prevent conformational changes of HSA due to changes in dielectric constant of the solvent.
Steady-state fluorescence was recorded using a thermostated Safas Xenius fluorometer (Safas Monaco, Monaco) with an integrated stirrer. All studies were performed at 25 ± 1 °C using 10 nm excitation and emission slit widths. […] Higher concentrations of HSA and ligands were not used due to poor solubility of ligands and high influence of ligand absorption. Measurements were performed in duplicate.

[4] = Flavonoid fluorescence in buffer solution without HSA
[5] = test system: HSA; conditions: of its intensity without warfarin; cited from earlier work
[6] = HSA 0-92% saturated with warfarin

Chain of Human serum albumin (HSA) IIA binding site (P02768 25-609): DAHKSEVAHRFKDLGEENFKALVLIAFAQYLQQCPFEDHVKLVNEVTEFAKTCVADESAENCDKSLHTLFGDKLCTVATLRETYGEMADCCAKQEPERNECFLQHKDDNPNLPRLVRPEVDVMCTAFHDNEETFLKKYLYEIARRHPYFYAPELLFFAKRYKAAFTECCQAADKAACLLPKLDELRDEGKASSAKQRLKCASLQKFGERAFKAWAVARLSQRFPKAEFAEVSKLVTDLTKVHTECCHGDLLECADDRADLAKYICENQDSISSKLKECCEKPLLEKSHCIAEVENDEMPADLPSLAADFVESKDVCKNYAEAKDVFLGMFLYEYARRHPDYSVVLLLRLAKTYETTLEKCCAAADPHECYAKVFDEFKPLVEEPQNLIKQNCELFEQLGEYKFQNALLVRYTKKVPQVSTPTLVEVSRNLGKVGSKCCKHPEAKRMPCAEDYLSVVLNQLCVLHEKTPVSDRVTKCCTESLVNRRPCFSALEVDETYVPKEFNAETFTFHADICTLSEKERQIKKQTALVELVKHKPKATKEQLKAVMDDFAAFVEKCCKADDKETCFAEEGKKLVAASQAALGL
T1 sequence (P02768 25-609): as above

For `O=C(O)[C@H]1O[C@@H](Oc2c(-c3ccc(O)c(O)c3)oc3cc(O)cc(O)c3c2=O)[C@H](O)[C@@H](O)[C@@H]1O`, the “K ± S.D. (binding constant)” value [1] was 5.36 ± 0.13 × 10^4 M^−1.

With `O=c1cc(-c2ccc(O)c(O)c2)oc2cc(O)c([C@@H]3O[C@H](CO)[C@@H](O)[C@H](O)[C@H]3O)c(O)c12` [Isoorientin] the Kd [1] was 21.9 µM.

Work on `C[C@@H]1O[C@@H](OC[C@H]2O[C@@H](Oc3c(-c4ccc(O)c(O)c4)oc4cc(O)cc(O)c4c3=O)[C@H](O)[C@@H](O)[C@@H]2O)[C@H](O)[C@H](O)[C@H]1O` [Rutin] yielded a Kd [1] of 34.2 µM.

Molecule `O=c1c(O[C@@H]2O[C@H](CO)[C@@H](O)[C@H](O)[C@H]2O)c(-c2ccc(O)c(O)c2)oc2cc(O)cc(O)c12` [Isoquercitrin] has a Kd [1] of 22.4 µM.

In the case of `CC(=O)CC(c1ccccc1)c1c(O)c2ccccc2oc1=O` (stereo not shown) [Warfarin], the “Fraction of warfarin in blood bound to HSA” value [2] is given as greater than 99%.

`O=c1c(O[C@@H]2O[C@H](CO)[C@H](O)[C@H](O)[C@H]2O)c(-c2ccc(O)c(O)c2)oc2cc(O)cc(O)c12` [Hyperoside] showed a Kd [1] of 30.9 µM.

In the case of `O=c1cc(-c2ccc(O)c(O)c2)oc2cc(O[C@@H]3O[C@H](CO)[C@@H](O)[C@H](O)[C@H]3O)cc(O)c12` [Cynaroside], the “K ± S.D. (binding constant)” value [1] is reported as 4.20 ± 0.25 × 10^4 M^−1.

For `O=c1c(O)c(-c2ccc(O)c(O)c2)oc2cc(O)cc(O)c12` [Quercetin], the “Effect of warfarin on flavonoid Fmax (maximum fluorescence)” value [3, 6] was “slightly decreased”, the “Effect of warfarin on flavonoid cmax (concentration needed to achieve Fmax)” value [3, 6] was “slight increase” and the Absolute fluorescence intensity ([3]; flavonoid 2,00 uM, 0% occupied HSA) was 14,1006. The Absolute fluorescence intensity ([3]; flavonoid 2,00 uM, 22% occupied HSA) was 14,3985, the Absolute fluorescence intensity ([3]; flavonoid 2,00 uM, 38% occupied HSA) was 15,6001 and the Absolute fluorescence intensity ([3]; flavonoid 2,00 uM, 63% occupied HSA) was 14,9774. The Absolute fluorescence intensity ([3]; flavonoid 2,00 uM, 92% occupied HSA) was 12,2760, the Absolute fluorescence intensity ([3]; flavonoid 4,00 uM, 0% occupied HSA) was 18,1924 and the Absolute fluorescence intensity ([3]; flavonoid 4,00 uM, 22% occupied HSA) was 19,1798. For the same molecule, the Absolute fluorescence intensity ([3]; flavonoid 4,00 uM, 38% occupied HSA) was 20,1073, the Absolute fluorescence intensity ([3]; flavonoid 4,00 uM, 63% occupied HSA) was 20,0687 and the Absolute fluorescence intensity ([3]; flavonoid 4,00 uM, 92% occupied HSA) was 16,0796. The Absolute fluorescence intensity ([3]; flavonoid 6,00 uM, 0% occupied HSA) was 21,7864, the Absolute fluorescence intensity ([3]; flavonoid 6,00 uM, 22% occupied HSA) was 22,8342 and the Absolute fluorescence intensity ([3]; flavonoid 6,00 uM, 38% occupied HSA) was 23,2658. For the same molecule, the Absolute fluorescence intensity ([3]; flavonoid 6,00 uM, 63% occupied HSA) was 23,0451, the Absolute fluorescence intensity ([3]; flavonoid 6,00 uM, 92% occupied HSA) was 18,9492 and the Absolute fluorescence intensity ([3]; flavonoid 7,99 uM, 0% occupied HSA) was 25,2012. For the same molecule, the Absolute fluorescence intensity ([3]; flavonoid 7,99 uM, 22% occupied HSA) was 26,8970, the Absolute fluorescence intensity ([3]; flavonoid 7,99 uM, 38% occupied HSA) was 26,0412 and the Absolute fluorescence intensity ([3]; flavonoid 7,99 uM, 63% occupied HSA) was 25,4057. For the same molecule, the Absolute fluorescence intensity ([3]; flavonoid 7,99 uM, 92% occupied HSA) was 21,2821, the Absolute fluorescence intensity ([3]; flavonoid 11,98 uM, 0% occupied HSA) was 30,3340 and the Absolute fluorescence intensity ([3]; flavonoid 11,98 uM, 22% occupied HSA) was 31,0510. For the same molecule, the Absolute fluorescence intensity ([3]; flavonoid 11,98 uM, 38% occupied HSA) was 30,0611, the Absolute fluorescence intensity ([3]; flavonoid 11,98 uM, 63% occupied HSA) was 29,3172 and the Absolute fluorescence intensity ([3]; flavonoid 11,98 uM, 92% occupied HSA) was 25,1156. The Absolute fluorescence intensity ([3]; flavonoid 15,97 uM, 0% occupied HSA) was 33,9655, the Absolute fluorescence intensity ([3]; flavonoid 15,97 uM, 22% occupied HSA) was 33,9646 and the Absolute fluorescence intensity ([3]; flavonoid 15,97 uM, 38% occupied HSA) was 33,4123. The Absolute fluorescence intensity ([3]; flavonoid 15,97 uM, 63% occupied HSA) was 32,2916, the Absolute fluorescence intensity ([3]; flavonoid 15,97 uM, 92% occupied HSA) was 28,2109 and the Absolute fluorescence intensity ([3]; flavonoid 23,93 uM, 0% occupied HSA) was 38,4893. The Absolute fluorescence intensity ([3]; flavonoid 23,93 uM, 22% occupied HSA) was 37,6942, the Absolute fluorescence intensity ([3]; flavonoid 23,93 uM, 38% occupied HSA) was 37,3757 and the Absolute fluorescence intensity ([3]; flavonoid 23,93 uM, 63% occupied HSA) was 36,2415. For the same molecule, the Absolute fluorescence intensity ([3]; flavonoid 23,93 uM, 92% occupied HSA) was 32,2392, the Absolute fluorescence intensity ([3]; flavonoid 31,87 uM, 0% occupied HSA) was 40,5581 and the Absolute fluorescence intensity ([3]; flavonoid 31,87 uM, 22% occupied HSA) was 39,7022. The Absolute fluorescence intensity ([3]; flavonoid 31,87 uM, 38% occupied HSA) was 39,4192, the Absolute fluorescence intensity ([3]; flavonoid 31,87 uM, 63% occupied HSA) was 37,9878 and the Absolute fluorescence intensity ([3]; flavonoid 31,87 uM, 92% occupied HSA) was 34,7552. The Absolute fluorescence intensity ([3]; flavonoid 39,80 uM, 0% occupied HSA) was 41,9281, the Absolute fluorescence intensity ([3]; flavonoid 39,80 uM, 22% occupied HSA) was 41,0854 and the Absolute fluorescence intensity ([3]; flavonoid 39,80 uM, 38% occupied HSA) was 41,0246. For the same molecule, the Absolute fluorescence intensity ([3]; flavonoid 39,80 uM, 63% occupied HSA) was 39,4685, the Absolute fluorescence intensity ([3]; flavonoid 39,80 uM, 92% occupied HSA) was 36,6753 and the Absolute fluorescence intensity ([3]; flavonoid 47,71 uM, 0% occupied HSA) was 41,6617. The Absolute fluorescence intensity ([3]; flavonoid 47,71 uM, 22% occupied HSA) was 41,5821, the Absolute fluorescence intensity ([3]; flavonoid 47,71 uM, 38% occupied HSA) was 41,3733 and the Absolute fluorescence intensity ([3]; flavonoid 47,71 uM, 63% occupied HSA) was 40,4449. The Absolute fluorescence intensity ([3]; flavonoid 47,71 uM, 92% occupied HSA) was 37,3158, the Absolute fluorescence intensity ([3]; flavonoid 63,49 uM, 0% occupied HSA) was 40,9892 and the Absolute fluorescence intensity ([3]; flavonoid 63,49 uM, 22% occupied HSA) was 40,4660. For the same molecule, the Absolute fluorescence intensity ([3]; flavonoid 63,49 uM, 38% occupied HSA) was 40,7086, the Absolute fluorescence intensity ([3]; flavonoid 63,49 uM, 63% occupied HSA) was 39,7702 and the Absolute fluorescence intensity ([3]; flavonoid 63,49 uM, 92% occupied HSA) was 38,0617. The Absolute fluorescence intensity ([3]; flavonoid 79,21 uM, 0% occupied HSA) was 39,3310, the Absolute fluorescence intensity ([3]; flavonoid 79,21 uM, 22% occupied HSA) was 39,3997 and the Absolute fluorescence intensity ([3]; flavonoid 79,21 uM, 38% occupied HSA) was 39,3849. For the same molecule, the Absolute fluorescence intensity ([3]; flavonoid 79,21 uM, 63% occupied HSA) was 38,8686, the Absolute fluorescence intensity ([3]; flavonoid 79,21 uM, 92% occupied HSA) was 37,3045 and the Absolute fluorescence intensity ([3]; flavonoid 98,77 uM, 0% occupied HSA) was 37,4633. For the same molecule, the Absolute fluorescence intensity ([3]; flavonoid 98,77 uM, 22% occupied HSA) was 37,3641, the Absolute fluorescence intensity ([3]; flavonoid 98,77 uM, 38% occupied HSA) was 37,6865 and the Absolute fluorescence intensity ([3]; flavonoid 98,77 uM, 63% occupied HSA) was 37,3324. For the same molecule, the Absolute fluorescence intensity ([3]; flavonoid 98,77 uM, 92% occupied HSA) was 36,3823, the Absolute fluorescence intensity ([4]; flavonoid 2,00 uM) was 0,8077 and the Absolute fluorescence intensity ([4]; flavonoid 4,00 uM) was 0,9540. The Absolute fluorescence intensity ([4]; flavonoid 7,99 uM) was 1,1279, the Absolute fluorescence intensity ([4]; flavonoid 15,97 uM) was 1,3080 and the Absolute fluorescence intensity ([4]; flavonoid 31,87 uM) was 1,5574. The Absolute fluorescence intensity ([4]; flavonoid 47,71 uM) was 1,7477, the Absolute fluorescence intensity ([4]; flavonoid 63,49 uM) was 2,0820 and the Absolute fluorescence intensity ([4]; flavonoid 79,21 uM) was 2,2472. The Absolute fluorescence intensity ([4]; flavonoid 98,77 uM) was 2,4600, the “Relative STD-NMR signal intensity in presence of warfarin” value [5] was ~ 40% and the Kd [1] was 6.94 µM.

Reference: article PMC6152318 (Molecules : A Journal of Synthetic Chemistry and Natural …, 2017)
